Biological target: T1, BK channels (Homo sapiens, UniProt Q12791)
T1 construct: expressed in transfected cells; host or cells: Xenopus laevis oocytes
Test: BK channel opening activity, two-electrode voltage clamp in Xenopus laevis oocytes
Assay type: cell-based
Experimental: In this example the BK channel opening activity of a phenylcarbamoyl-methyl-indole derivative for use according to the invention, i.e. 5-Chloro-3-[(3-chloro-phenylcarbamoyl)-methyl]-1H-indole-2-carboxylic acid (herein designated Compound A), is determined using BK channels heterologously expressed in Xenopus laevis oocytes.
The electrical current through the BK channel is measured conventional two-electrode voltage clamp. BK current is activated by repeated step protocols. In brief, this protocol goes from a resting membrane potential of −40 mV lasting for 5 s to a depolarised step to +20 mV lasting for 1 s. The protocol was repeated continuously.
Having reached stable current level, Compound A (10 μM), was added. A marked increase in the current activated by depolarisation could be observed. The BK current activity returned to baseline after approximately 30-60 seconds of wash. In summary BK current was increased by 92±23% in the presence of 10 μM of compound A (n=3, SD value).

T1 sequence (Q12791 whole entry): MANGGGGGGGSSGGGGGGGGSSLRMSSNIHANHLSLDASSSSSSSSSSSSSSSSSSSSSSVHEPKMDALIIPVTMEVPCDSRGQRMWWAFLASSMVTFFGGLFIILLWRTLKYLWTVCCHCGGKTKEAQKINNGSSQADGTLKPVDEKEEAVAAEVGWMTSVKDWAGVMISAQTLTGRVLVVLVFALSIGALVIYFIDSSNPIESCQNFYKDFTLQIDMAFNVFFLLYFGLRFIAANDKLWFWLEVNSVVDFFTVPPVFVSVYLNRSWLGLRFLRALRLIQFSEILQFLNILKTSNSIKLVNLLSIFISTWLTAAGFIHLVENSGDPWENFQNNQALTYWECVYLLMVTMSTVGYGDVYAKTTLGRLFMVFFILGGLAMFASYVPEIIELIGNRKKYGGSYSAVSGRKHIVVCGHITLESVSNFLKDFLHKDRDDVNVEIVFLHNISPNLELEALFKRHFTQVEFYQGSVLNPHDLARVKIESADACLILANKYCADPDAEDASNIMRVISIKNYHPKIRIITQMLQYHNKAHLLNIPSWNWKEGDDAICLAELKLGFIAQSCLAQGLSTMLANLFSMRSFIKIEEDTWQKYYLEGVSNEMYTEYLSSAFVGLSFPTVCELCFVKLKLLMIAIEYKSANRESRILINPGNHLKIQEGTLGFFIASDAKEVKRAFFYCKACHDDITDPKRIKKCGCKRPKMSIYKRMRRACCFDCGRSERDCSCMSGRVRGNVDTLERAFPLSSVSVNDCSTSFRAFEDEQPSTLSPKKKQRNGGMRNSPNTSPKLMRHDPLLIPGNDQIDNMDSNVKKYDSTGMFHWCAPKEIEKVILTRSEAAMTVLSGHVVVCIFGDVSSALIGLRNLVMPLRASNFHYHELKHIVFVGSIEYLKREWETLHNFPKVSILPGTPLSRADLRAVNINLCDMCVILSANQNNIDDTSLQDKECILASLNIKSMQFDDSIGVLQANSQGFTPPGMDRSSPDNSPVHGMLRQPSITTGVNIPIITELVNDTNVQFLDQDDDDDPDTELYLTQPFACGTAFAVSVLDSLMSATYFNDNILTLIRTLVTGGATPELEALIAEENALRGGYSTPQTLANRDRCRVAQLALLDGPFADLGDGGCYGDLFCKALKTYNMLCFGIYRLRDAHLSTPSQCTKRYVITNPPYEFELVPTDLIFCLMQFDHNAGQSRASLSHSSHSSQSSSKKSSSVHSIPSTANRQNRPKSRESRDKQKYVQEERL

With O=C(Cc1c(C(=O)O)[nH]c2ccc(Cl)cc12)Nc1cccc(Cl)c1 [Compound A, 5-Chloro-3-[(3-chloro-phenylcarbamoyl)-methyl]-1H-indole-2-carboxylic acid] the BK current increase (10 μM compound, BK channels heterologously expressed in Xenopus laevis oocytes, depolarising step to +20 mV, n=3, SD value) was 92±23% and the “BK current activity return to baseline after wash” value (wash after 10 μM compound, Xenopus laevis oocytes) was 30 to 60 s.

Reference: patent US20100099732A1, “MEDICAMENTS USEFUL AS POTASSIUM CHANNEL MODULATORS” (NeuroSearch A/S, priority 2007, published 2010)
